Laboratory results reported in patent US20020035061A1, “COMPOSITIONS AND METHODS FOR TREATING INFECTIONS USING CATIONIC PEPTIDES ALONE OR IN COMBINATION WITH ANTIBIOTICS” (priority 1996, published 2002).

Tests used:
Type in all cases: cell-based
A. calcoaceticus = A. calcoaceticus strain AC002
E. cloacae = E. cloacae strain ECL007
E. coli = E. coli strain ECO005
E. faecalis = E. faecalis strain EFS002
E. faecium = E. faecium strain EFM002
H. influenzae = test: Agarose dilution assay (MIC); settings: H. influenzae strain HIN002
K. pneumoniae = K. pneumoniae strain KP001
P. aeruginosa = P. aeruginosa strain PA004
P. mirabilis = test: Agarose dilution assay (MIC); settings: P. mirabilis strain PM002
S. aureus = S. aureus strain SA010
S. epidermidis = S. epidermidis strain SE010
S. maltophilia = S. maltophilia strain SMA002
S. marcescens = S. marcescens strain SMS003
S. pneumoniae = test: Agarose dilution assay (MIC)
S. pyogenes = test: Agarose dilution assay (MIC); settings: S. pyogenes strain SPY005
bacterial isolates = test: microbe, parasite or virus in culture
[1] = system: microorganisms with acquired resistance; test: microbe, parasite or virus in culture
[2] = A. baumannii ABI001, Tobramycin section
[3] = A. calcoaceticus 3, Piperacillin section
[4] = P. aeruginosa 15, Piperacillin section
[5] = P. aeruginosa PA008, Tobramycin section
[6] = P. aeruginosa PA025, Tobramycin section
[7] = S. marcescens SB1, Piperacillin section
[8] = peptide + Piperacillin, A. calcoaceticus 3
[9] = peptide + Piperacillin, P. aeruginosa 15
[10] = peptide + Piperacillin, S. marcescens SB1
[11] = peptide + Tobramycin, A. baumannii ABI001
[12] = peptide + Tobramycin, P. aeruginosa PA008
[13] = peptide + Tobramycin, P. aeruginosa PA025

Sequence: ILRRVJPWWPWRRR [MBI 11B9CN]
- MIC (A. calcoaceticus): 4 µg/mL
- MIC (E. cloacae): >128 µg/mL
- MIC (E. coli): 8 µg/mL
- MIC (E. faecalis): 8 µg/mL
- MIC (E. faecium): 4 µg/mL
- MIC (H. influenzae): >128 µg/mL
- MIC (K. pneumoniae): 32 µg/mL
- MIC (P. aeruginosa): 128 µg/mL
- MIC (P. mirabilis): >128 µg/mL
- MIC (S. aureus): 4 µg/mL
- MIC (S. epidermidis): 2 µg/mL
- MIC (S. maltophilia): 32 µg/mL
- MIC (S. marcescens): >128 µg/mL
- MIC (S. pneumoniae; S. pneumoniae strain SBSPN2): >128 µg/mL
- MIC (S. pneumoniae; S. pneumoniae strain SPN044): >128 µg/mL
- MIC (S. pyogenes): 16 µg/mL
- Peptide MIC + Tobramycin (bacterial isolates; A. baumannii ABI001): 8 µg/mL
- Tobramycin MIC + Peptide (bacterial isolates; A. baumannii ABI001): 4 µg/mL
- Peptide MIC Alone (bacterial isolates; [2]): 32 µg/mL
- Peptide MIC + Piperacillin (bacterial isolates; A. calcoaceticus 3): 2 µg/mL
- Piperacillin MIC + Peptide (bacterial isolates; A. calcoaceticus 3): 32 µg/mL
- Peptide MIC Alone (bacterial isolates; [3]): 32 µg/mL
- Peptide MIC + Tobramycin (bacterial isolates; B. cepacia BC002): 32 µg/mL
- Tobramycin MIC + Peptide (bacterial isolates; B. cepacia BC002): 64 µg/mL
- Peptide MIC Alone (bacterial isolates; B. cepacia BC002, Tobramycin section): >128 µg/mL
- Peptide MIC + Piperacillin (bacterial isolates; H. influenzae 3): 0.125 µg/mL
- Piperacillin MIC + Peptide (bacterial isolates; H. influenzae 3): 0.25 µg/mL
- Peptide MIC Alone (bacterial isolates; H. influenzae 3, Piperacillin section): >128 µg/mL
- Peptide MIC + Piperacillin (bacterial isolates; H. influenzae SB1): 0.125 µg/mL
- Piperacillin MIC + Peptide (bacterial isolates; H. influenzae SB1): 0.25 µg/mL
- Peptide MIC Alone (bacterial isolates; H. influenzae SB1, Piperacillin section): >128 µg/mL
- Peptide MIC + Piperacillin (bacterial isolates; P. aeruginosa 15): 64 µg/mL
- Piperacillin MIC + Peptide (bacterial isolates; P. aeruginosa 15): 64 µg/mL
- Peptide MIC Alone (bacterial isolates; [4]): >128 µg/mL
- Peptide MIC + Piperacillin (bacterial isolates; P. aeruginosa 23): 0.5 µg/mL
- Piperacillin MIC + Peptide (bacterial isolates; P. aeruginosa 23): 16 µg/mL
- Peptide MIC Alone (bacterial isolates; P. aeruginosa 23, Piperacillin section): 64 µg/mL
- Peptide MIC + Tobramycin (bacterial isolates; P. aeruginosa PA008): 64 µg/mL
- Tobramycin MIC + Peptide (bacterial isolates; P. aeruginosa PA008): 0.125 µg/mL
- Peptide MIC Alone (bacterial isolates; [5]): 128 µg/mL
- Peptide MIC + Tobramycin (bacterial isolates; P. aeruginosa PA025): 64 µg/mL
- Tobramycin MIC + Peptide (bacterial isolates; P. aeruginosa PA025): 2 µg/mL
- Peptide MIC Alone (bacterial isolates; [6]): 128 µg/mL
- Peptide MIC + Piperacillin (bacterial isolates; S. aureus 19 MRSA): 1 µg/mL
- Piperacillin MIC + Peptide (bacterial isolates; S. aureus 19 MRSA): 16 µg/mL
- Peptide MIC Alone (bacterial isolates; S. aureus 19 MRSA, Piperacillin section): 4 µg/mL
- Peptide MIC + Piperacillin (bacterial isolates; S. aureus SB2MRSA): 1 µg/mL
- Piperacillin MIC + Peptide (bacterial isolates; S. aureus SB2MRSA): 8 µg/mL
- Peptide MIC Alone (bacterial isolates; S. aureus SB2MRSA, Piperacillin section): 2 µg/mL
- Peptide MIC + Piperacillin (bacterial isolates; S. maltophilia 5): 64 µg/mL
- Piperacillin MIC + Peptide (bacterial isolates; S. maltophilia 5): 64 µg/mL
- Peptide MIC Alone (bacterial isolates; S. maltophilia 5, Piperacillin section): >128 µg/mL
- Peptide MIC + Piperacillin (bacterial isolates; S. maltophilia 13): 32 µg/mL
- Piperacillin MIC + Peptide (bacterial isolates; S. maltophilia 13): 64 µg/mL
- Peptide MIC Alone (bacterial isolates; S. maltophilia 13, Piperacillin section): >128 µg/mL
- Peptide MIC + Tobramycin (bacterial isolates; S. maltophilia SMA029): 16 µg/mL
- Tobramycin MIC + Peptide (bacterial isolates; S. maltophilia SMA029): 4 µg/mL
- Peptide MIC Alone (bacterial isolates; S. maltophilia SMA029, Tobramycin section): >128 µg/mL
- Peptide MIC + Piperacillin (bacterial isolates; S. marcescens SB1): 2 µg/mL
- Piperacillin MIC + Peptide (bacterial isolates; S. marcescens SB1): 16 µg/mL
- Peptide MIC Alone (bacterial isolates; [7]): >128 µg/mL
- FIC (bacterial isolates; [8]): 0.56
- FIC (bacterial isolates; peptide + Piperacillin, H. influenzae 3): 0.50
- FIC (bacterial isolates; peptide + Piperacillin, H. influenzae SB1): 0.50
- FIC (bacterial isolates; [9]): 0.50
- FIC (bacterial isolates; peptide + Piperacillin, P. aeruginosa 23): 0.13
- FIC (bacterial isolates; peptide + Piperacillin, S. aureus 19 MRSA): 0.38
- FIC (bacterial isolates; peptide + Piperacillin, S. aureus SB2MRSA): 0.56
- FIC (bacterial isolates; peptide + Piperacillin, S. maltophilia 5): 0.50
- FIC (bacterial isolates; peptide + Piperacillin, S. maltophilia 13): 0.38
- FIC (bacterial isolates; [10]): 0.26
- FIC (bacterial isolates; [11]): 0.50
- FIC (bacterial isolates; peptide + Tobramycin, B. cepacia BC002): 0.38
- FIC (bacterial isolates; [12]): 0.50
- FIC (bacterial isolates; [13]): 0.56
- FIC (bacterial isolates; peptide + Tobramycin, S. maltophilia SMA029): 0.13
- Peptide MIC + Tobramycin ([1]; A. baumannii ABI001): 8 µg/mL
- Tobramycin MIC + Peptide ([1]; A. baumannii ABI001): 4 µg/mL
- Peptide MIC Alone [1, 2]: 32 µg/mL
- Peptide MIC + Piperacillin ([1]; A. calcoaceticus 3): 16 µg/mL
- Piperacillin MIC + Peptide ([1]; A. calcoaceticus 3): 16 µg/mL
- Peptide MIC Alone [1, 3]: 32 µg/mL
- Peptide MIC + Tobramycin ([1]; E. coli EC0006): 8 µg/mL
- Tobramycin MIC + Peptide ([1]; E. coli EC0006): 4 µg/mL
- Peptide MIC Alone ([1]; E. coli EC0006, Tobramycin section): 32 µg/mL
- Peptide MIC + Piperacillin ([1]; P. aeruginosa 12): 64 µg/mL
- Piperacillin MIC + Peptide ([1]; P. aeruginosa 12): 64 µg/mL
- Peptide MIC Alone ([1]; P. aeruginosa 12, Piperacillin section): 128 µg/mL
- Peptide MIC + Piperacillin ([1]; P. aeruginosa 15): 64 µg/mL
- Piperacillin MIC + Peptide ([1]; P. aeruginosa 15): 64 µg/mL
- Peptide MIC Alone [1, 4]: >128 µg/mL
- Peptide MIC + Tobramycin ([1]; P. aeruginosa PA008): 64 µg/mL
- Tobramycin MIC + Peptide ([1]; P. aeruginosa PA008): 0.125 µg/mL
- Peptide MIC Alone [1, 5]: 128 µg/mL
- Peptide MIC + Tobramycin ([1]; P. aeruginosa PA025): 64 µg/mL
- Tobramycin MIC + Peptide ([1]; P. aeruginosa PA025): 2 µg/mL
- Peptide MIC Alone [1, 6]: 128 µg/mL
- Peptide MIC + Piperacillin ([1]; S. maltophilia 2): 16 µg/mL
- Piperacillin MIC + Peptide ([1]; S. maltophilia 2): 16 µg/mL
- Peptide MIC Alone ([1]; S. maltophilia 2, Piperacillin section): 32 µg/mL
- Peptide MIC + Tobramycin ([1]; S. maltophilia SMA027): 32 µg/mL
- Tobramycin MIC + Peptide ([1]; S. maltophilia SMA027): 4 µg/mL
- Peptide MIC Alone ([1]; S. maltophilia SMA027, Tobramycin section): >128 µg/mL
- Peptide MIC + Tobramycin ([1]; S. maltophilia SMA031): 32 µg/mL
- Tobramycin MIC + Peptide ([1]; S. maltophilia SMA031): 4 µg/mL
- Peptide MIC Alone ([1]; S. maltophilia SMA031, Tobramycin section): >128 µg/mL
- Peptide MIC + Piperacillin ([1]; S. marcescens SB1): 2 µg/mL
- Piperacillin MIC + Peptide ([1]; S. marcescens SB1): 16 µg/mL
- Peptide MIC Alone [1, 7]: >128 µg/mL
- FIC [1, 8]: 0.75
- FIC ([1]; peptide + Piperacillin, P. aeruginosa 12): 0.75
- FIC [1, 9]: 0.50
- FIC ([1]; peptide + Piperacillin, S. maltophilia 2): 0.75
- FIC [1, 10]: 0.26
- FIC [1, 11]: 0.50
- FIC ([1]; peptide + Tobramycin, E. coli EC0006): 0.75
- FIC [1, 12]: 0.50
- FIC [1, 13]: 0.56
- FIC ([1]; peptide + Tobramycin, S. maltophilia SMA027): 0.63
- FIC ([1]; peptide + Tobramycin, S. maltophilia SMA031): 0.19
